Laboratory results reported in PubChem BioAssay (NCI).
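Where inhibition never reached the appropriate level, the endpoint shown equals the highest concentration tested. Otherwise, values were interpolated linearly from a five-concentration, 48-hour dose response in 96-well plates. Definition used: TGI = concentration required for complete inhibition of growth.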

What was measured:
Test in all cases: NCI tumour cell line growth inhibition, 48 h
[1] = system: DMS 273 small cell lung
[2] = system: LOX IMVI melanoma
[3] = system: HT29 colon
[4] = system: HOP-92 NSCLC
[5] = system: SF-268 CNS
[6] = system: SN12C renal
[7] = system: HCT-116 colon
[8] = system: KM20L2 colon
[9] = system: SF-295 CNS
[10] = system: RPMI-8226 leukemia
[11] = system: SW-620 colon
[12] = system: MALME-3M melanoma
[13] = system: NCI-H226 lung
[14] = system: P388 leukemia
[15] = system: EKVX NSCLC
[16] = system: A498 renal
[17] = system: SN12K1 renal
[18] = system: SNB-75 CNS
[19] = system: P388/ADR leukemia
[20] = system: HL-60(TB) leukemia
[21] = system: UACC-62 melanoma
[22] = system: MOLT-4 leukemia
[23] = system: NCI-H23 lung
[24] = system: COLO 205 colon
[25] = system: CAKI-1 renal
[26] = system: NCI-H522 lung
[27] = system: SK-MEL-2 melanoma
[28] = system: NCI/ADR-RES ovarian
[29] = system: HCT-15 colon
[30] = system: IGROV1 ovarian
[31] = system: K-562 leukemia
[32] = system: M19-MEL melanoma
[33] = system: UO-31 renal
[34] = system: OVCAR-8 ovarian
[35] = system: DLD-1 colon
[36] = system: KM12 colon
[37] = system: HOP-18 NSCLC
[38] = system: CCRF-CEM leukemia
[39] = system: HOP-62 NSCLC
[40] = system: SNB-19 CNS
[41] = system: SK-MEL-28 melanoma
[42] = system: RXF 393 renal
[43] = system: OVCAR-5 ovarian
[44] = system: MCF7 breast
[45] = system: UACC-257 melanoma
[46] = system: DMS 114 small cell lung
[47] = system: SK-OV-3 ovarian
[48] = system: NCI-H460 lung
[49] = system: OVCAR-3 ovarian
[50] = system: U251 CNS
[51] = system: XF 498 CNS
[52] = system: OVCAR-4 ovarian
[53] = system: SF-539 CNS
[54] = system: A549 NSCLC
[55] = system: SK-MEL-5 melanoma
[56] = system: HCC-2998 colon

Which TGI [1] does the source give for `C=C1C(=O)O[C@@H]2[C@H](O)[C@@H](C)[C@@H]3C=CC(=O)[C@@]3(C)[C@H](OC(=O)C=C(C)C)[C@H]12` here?
Its TGI is 3240 nM.

What about the TGI [2] of the same compound?
Its TGI is 2250 nM.

And the TGI [3]?
The TGI was 3820 nM.

What about the TGI [4] of the same compound?
Its TGI is 2210 nM.

And the TGI [5]?
The TGI was 3590 nM.

And the TGI [6]?
Its TGI is 2270 nM.

What about the TGI [7] of the same compound?
Its TGI is 1720 nM.

What about the TGI [8] of the same compound?
Its TGI is 5120 nM.

What about the TGI [9] of the same compound?
Its TGI is 7270 nM.

What about the TGI [10] of the same compound?
Its TGI is 975 nM.

And the TGI [11]?
The TGI was 1180 nM.

What about the TGI [12] of the same compound?
The TGI was 1250 nM.

And the TGI [13]?
The TGI was 4170 nM.

And the TGI [14]?
The TGI was 483 nM.

What about the TGI [15] of the same compound?
Its TGI is 5500 nM.

And the TGI [16]?
Its TGI is 4650 nM.

What about the TGI [17] of the same compound?
The TGI was 1750 nM.

And the TGI [18]?
The TGI was 7860 nM.

And the TGI [19]?
Its TGI is 272 nM.

And the TGI [20]?
The TGI was 412 nM.

And the TGI [21]?
Its TGI is 1870 nM.

What about the TGI [22] of the same compound?
Its TGI is 725 nM.

And the TGI [23]?
Its TGI is 2880 nM.

What about the TGI [24] of the same compound?
The TGI was 1670 nM.

What about the TGI [25] of the same compound?
Its TGI is 1740 nM.

What about the TGI [26] of the same compound?
Its TGI is 400 nM.

And the TGI [27]?
The TGI was 2840 nM.

And the TGI [28]?
Its TGI is 6420 nM.

What about the TGI [29] of the same compound?
The TGI was 667 nM.

What about the TGI [30] of the same compound?
The TGI was 4480 nM.

What about the TGI [31] of the same compound?
Its TGI is 518 nM.

And the TGI [32]?
Its TGI is 2700 nM.

What about the TGI [33] of the same compound?
The TGI was 7230 nM.

And the TGI [34]?
Its TGI is 8530 nM.

And the TGI [35]?
The TGI was 878 nM.

And the TGI [36]?
Its TGI is 3780 nM.

And the TGI [37]?
Its TGI is 3090 nM.

And the TGI [38]?
The TGI was 461 nM.

And the TGI [39]?
The TGI was 11400 nM.

And the TGI [40]?
Its TGI is 17200 nM.

What about the TGI [41] of the same compound?
Its TGI is 1810 nM.

And the TGI [42]?
The TGI was 1330 nM.

What about the TGI [43] of the same compound?
The TGI was 4670 nM.

And the TGI [44]?
Its TGI is 1810 nM.

And the TGI [45]?
Its TGI is 4740 nM.

What about the TGI [46] of the same compound?
Its TGI is 6570 nM.

What about the TGI [47] of the same compound?
Its TGI is 7910 nM.

And the TGI [48]?
Its TGI is 6020 nM.

What about the TGI [49] of the same compound?
Its TGI is 2150 nM.

And the TGI [50]?
The TGI was 3500 nM.

What about the TGI [51] of the same compound?
The TGI was 2630 nM.

What about the TGI [52] of the same compound?
The TGI was 4920 nM.

What about the TGI [53] of the same compound?
The TGI was 596 nM.

And the TGI [54]?
The TGI was 10000 nM.

What about the TGI [55] of the same compound?
Its TGI is 3780 nM.

What about the TGI [56] of the same compound?
Its TGI is 3230 nM.
